Experiment [1] is described as follows: viability of uninfected HEp-2 cells – cell-based, HTS, cytotoxicity control for RSV inhibitor project, dose response (AID 2410). It is filed as functional. Particulars: human respiratory syncytial virus.
A further experiment relates to H9c2. Briefly: cells. It is filed as functional, cell-based. Particulars: Rattus norvegicus, H9c2, Myocardium.
Experiment [2] has as its system Streptococcus sp. 'group A'. Briefly: Streptococcus pyogenes SK(-)GAS viability under kanamycin – luminescence, BacTiterGlo, confirmation, counter-screen for streptokinase expression inhibitor project, dose response (AID 1900). It is filed as functional, organism-based.
The next experiment deals with T1, Streptokinase A (Streptococcus pyogenes serotype M1, UniProt P10520).
T1 sequence (P10520 whole entry): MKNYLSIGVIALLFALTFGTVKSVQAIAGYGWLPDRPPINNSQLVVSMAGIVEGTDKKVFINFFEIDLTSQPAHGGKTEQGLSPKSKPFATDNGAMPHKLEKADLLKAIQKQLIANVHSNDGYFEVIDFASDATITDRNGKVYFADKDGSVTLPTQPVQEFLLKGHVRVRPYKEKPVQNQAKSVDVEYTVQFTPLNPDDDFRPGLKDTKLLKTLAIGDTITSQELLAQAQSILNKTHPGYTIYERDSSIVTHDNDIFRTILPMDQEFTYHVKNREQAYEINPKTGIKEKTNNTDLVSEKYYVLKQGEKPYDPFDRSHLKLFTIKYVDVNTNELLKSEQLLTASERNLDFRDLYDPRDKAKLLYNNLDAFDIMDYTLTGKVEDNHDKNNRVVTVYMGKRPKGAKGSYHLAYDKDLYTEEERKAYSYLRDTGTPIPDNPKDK
Briefly: viability-normalized secreted streptokinase activity reduction – plasminogen activation absorbance, OD405, dose response (AID 1914).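 Note: secreted streptokinase activity via plasminogen activation per viability signal from cell pellet.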 It is filed as functional, Streptococcus pyogenes M1 GAS.

The next experiment concerns Streptococcus. Description: GAS UMAA2166 growth inhibition – luminescence, BacTiterGlo, counter-screen for streptokinase expression inhibitor project, dose response (AID 1915).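 Note: potency for reduction of bacterial viability or growth.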 It is filed as functional, organism-based.
For another experiment, the target named is Cytochrome P450 3A4 (Homo sapiens, UniProt P08684).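 Note: CYP3A4 tested as one member of a cytochrome P450 panel screen.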
Cytochrome P450 3A4, sequence (P08684 whole entry): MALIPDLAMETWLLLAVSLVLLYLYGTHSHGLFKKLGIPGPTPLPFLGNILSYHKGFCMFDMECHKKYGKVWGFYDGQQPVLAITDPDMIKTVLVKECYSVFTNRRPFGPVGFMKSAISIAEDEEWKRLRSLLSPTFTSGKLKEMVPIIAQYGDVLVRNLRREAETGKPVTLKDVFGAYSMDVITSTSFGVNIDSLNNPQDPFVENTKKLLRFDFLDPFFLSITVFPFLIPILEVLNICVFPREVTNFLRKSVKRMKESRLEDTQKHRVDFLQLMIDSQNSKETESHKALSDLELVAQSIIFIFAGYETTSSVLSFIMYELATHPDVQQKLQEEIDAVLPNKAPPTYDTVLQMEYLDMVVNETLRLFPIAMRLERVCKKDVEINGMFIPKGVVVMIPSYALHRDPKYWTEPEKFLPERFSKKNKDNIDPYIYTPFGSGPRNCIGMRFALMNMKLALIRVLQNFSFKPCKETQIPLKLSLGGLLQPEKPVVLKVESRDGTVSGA
Experiment [3] can be described thus: NIH-3T3 fibroblast cytotoxicity, dose response, cytotoxicity control, cell-based, fluorescence, Alamar Blue, secondary assay (AID 2327).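 Note: NIH-3T3 mouse fibroblasts cultured with fluconazole at 8 µg/mL.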 The class given is functional.
The nature of experiment [4]: fluconazole-exposed Candida albicans growth modulators – fluorescence, retest, confirmation (AID 2467). It is filed as functional, cell-based.
Experiment [5] can be described thus: viability of PTEN-deleted HCT116 cells – cell-based, HCT116 PTEN knockout, dose response (AID 1047).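 Note: HCT116 colon tumor cells with PTEN knocked out; cells exposed to compound for 60 hours before readout; potency for loss of cell viability measured by luminescence.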 It is filed as functional.
The nature of experiment [6]: viability of HCT116 lacking mutant beta-catenin – cell-based, human colon tumor, dose response (AID 1045).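 Note: HCT116 colon tumor cells with beta catenin knocked out; cells exposed to compound for 60 hours.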 The class given is functional.
Experiment [7] addresses T2, Rac GTPase-activating protein 1 (Homo sapiens, UniProt Q9H0H5).
T2 sequence (Q9H0H5 whole entry): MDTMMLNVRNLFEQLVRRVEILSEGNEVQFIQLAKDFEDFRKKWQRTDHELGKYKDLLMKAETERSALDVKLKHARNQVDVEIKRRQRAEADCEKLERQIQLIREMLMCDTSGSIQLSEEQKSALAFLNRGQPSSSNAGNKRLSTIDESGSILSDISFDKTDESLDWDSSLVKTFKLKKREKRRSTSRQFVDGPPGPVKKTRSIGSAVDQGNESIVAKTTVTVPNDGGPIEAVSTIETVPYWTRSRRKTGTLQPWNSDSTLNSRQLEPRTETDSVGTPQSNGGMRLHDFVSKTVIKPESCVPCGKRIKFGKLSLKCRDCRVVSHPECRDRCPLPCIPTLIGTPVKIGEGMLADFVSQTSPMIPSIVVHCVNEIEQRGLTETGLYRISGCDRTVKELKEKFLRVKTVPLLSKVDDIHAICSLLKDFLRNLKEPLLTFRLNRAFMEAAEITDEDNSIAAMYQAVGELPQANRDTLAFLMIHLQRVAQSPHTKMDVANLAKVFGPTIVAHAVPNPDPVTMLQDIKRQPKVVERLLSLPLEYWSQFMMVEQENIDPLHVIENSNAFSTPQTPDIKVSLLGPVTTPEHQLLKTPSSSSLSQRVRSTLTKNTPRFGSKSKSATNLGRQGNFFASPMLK
Description: blockers of MgcRacGAP-driven Rac1 GTP hydrolysis – biochemical, ADP Hunter fluorescence, primary and confirmatory, confirmation (AID 624330). The class given is functional.

A short description of experiment [8]: Luminescence Cell-Based Dose Retest to Confirm Inhibitors of Cancer Stem Cells. [Related pubchem assays (depositor defined):AID2717, AID2721]. It is filed as functional. Conditions: Homo sapiens.
For the next experiment, the target named is Cytochrome P450 2C19 (Homo sapiens, UniProt P33261). Description: Cytochrome panel assay with activity outcomes. Panel member name: p450-cyp2c19 Compounds with AC50 equal or less than 10 uM are considered active. Particulars: read-out: AC50. It is filed as functional.
Cytochrome P450 2C19, sequence (P33261 whole entry): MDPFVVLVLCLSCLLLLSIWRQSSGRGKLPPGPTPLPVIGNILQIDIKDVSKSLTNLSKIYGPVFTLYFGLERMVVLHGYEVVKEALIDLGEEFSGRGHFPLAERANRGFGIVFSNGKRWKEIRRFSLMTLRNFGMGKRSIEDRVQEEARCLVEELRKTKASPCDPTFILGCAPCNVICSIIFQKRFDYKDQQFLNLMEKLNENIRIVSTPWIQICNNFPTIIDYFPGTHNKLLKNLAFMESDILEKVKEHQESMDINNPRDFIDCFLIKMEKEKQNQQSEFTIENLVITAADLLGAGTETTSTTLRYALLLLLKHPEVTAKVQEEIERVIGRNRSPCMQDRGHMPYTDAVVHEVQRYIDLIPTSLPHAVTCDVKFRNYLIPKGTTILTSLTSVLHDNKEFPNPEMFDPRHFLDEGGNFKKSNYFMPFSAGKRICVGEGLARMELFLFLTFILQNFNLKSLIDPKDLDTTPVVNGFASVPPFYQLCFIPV
Experiment [9] in a line: reduction of Shn3 3'UTR-driven luciferase in osteoblasts – cell-based, Clone20 osteoblasts, firefly luciferase, cherry-picked, dose response (AID 624132).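 Note: firefly luciferase luminescence from reporter carrying the Shn3 3'UTR in osteoblasts.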 The class given is functional.
A short description of experiment [10]: loss of viability in HepG2 cells – cell-based, CellTiter-Glo, cherry-picked, cytotoxicity control for Shn3 inhibitor project, dose response (AID 624134). It is filed as functional. For orientation: Cellular ATP, detected with luciferase, serves as a proxy for viable cell number.
Experiment [11] in a line: non-specific 3'UTR reporter inhibition in Clone20-Shn3RL – cell-based, Renilla luciferase, cherry-picked, counter-screen for Shn3 inhibitor project, dose response (AID 624133). The class given is functional. On the technique in general: A counterscreen serves to expose hits that act by an unwanted route or on another target.
The target of experiment [12] is T3, Corticotropin-releasing factor receptor 2/Corticotropin-releasing factor-binding protein (Homo sapiens, UniProt P24387+Q13324).
T3 sequence (Q13324 whole entry): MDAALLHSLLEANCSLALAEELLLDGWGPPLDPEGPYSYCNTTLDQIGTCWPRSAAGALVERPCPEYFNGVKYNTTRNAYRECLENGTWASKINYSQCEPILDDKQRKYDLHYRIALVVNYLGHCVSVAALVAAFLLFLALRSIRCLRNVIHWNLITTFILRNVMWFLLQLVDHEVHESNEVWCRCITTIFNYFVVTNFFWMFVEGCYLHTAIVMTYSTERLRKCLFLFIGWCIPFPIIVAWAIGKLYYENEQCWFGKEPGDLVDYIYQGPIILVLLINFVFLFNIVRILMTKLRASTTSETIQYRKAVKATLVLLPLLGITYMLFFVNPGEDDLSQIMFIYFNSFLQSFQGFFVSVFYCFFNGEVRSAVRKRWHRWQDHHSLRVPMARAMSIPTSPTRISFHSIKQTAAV
T3 sequence (P24387 whole entry): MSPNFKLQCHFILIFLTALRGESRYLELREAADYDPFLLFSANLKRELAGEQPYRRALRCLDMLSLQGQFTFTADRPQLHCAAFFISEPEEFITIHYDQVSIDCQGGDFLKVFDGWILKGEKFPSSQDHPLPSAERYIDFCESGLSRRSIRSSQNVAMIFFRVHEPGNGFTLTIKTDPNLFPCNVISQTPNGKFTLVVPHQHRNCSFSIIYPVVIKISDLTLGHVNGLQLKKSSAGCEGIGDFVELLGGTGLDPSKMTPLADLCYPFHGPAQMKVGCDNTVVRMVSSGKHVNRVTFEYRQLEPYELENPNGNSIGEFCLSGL
Description: activators of CRF receptor 2 with binding protein – uHTS hits, confirmation (AID 602473). It is filed as functional. Conditions: read-out: EC50_Mean.

The source of these data is ChEMBL document CHEMBL1201862, “PubChem BioAssay data set” (2004).

The source made the active and inactive calls.

With `CC1Nc2ncnc(N3CCN(c4ccccc4)CC3)c2N(Cc2ccc(Cl)cc2)C1=O` (stereo not given), the CC50 – broadly, the concentration giving 50% cytotoxicity – in experiment [1] was 26.4 µM (active). In addition, in the experiment on H9c2, the IC50 (as a rule, the concentration at which inhibition is half-maximal) is > 79 µM (inactive).
For the compound `COc1cc(NC(=O)c2cc3nc(-c4ccccc4)cc(-c4ccccc4)n3n2)cc(OC)c1OC`, the EC50 in experiment [2] is 11.7 µM (active); at Streptokinase A, > 150 µM (not active); in the experiment with Streptococcus it was > 150 µM (not active). In addition, the IC50 in the experiment with H9c2 was 8.62 µM (active). The AC50 (in general, the concentration giving half of the maximal activity seen) at Cytochrome P450 3A4 is 10 µM (inconclusive).
`CCOC(=O)c1cnc(-n2cc(C)cn2)nc1Nc1ccccc1OCC`: the EC50 in experiment [3] was 44.2 µM (active); in experiment [2] it was 4.47 µM (active); at Streptokinase A, > 150 µM (not active); in experiment [4] it was > 38 µM (not active); in the experiment on Streptococcus it was 6.46 µM (active).
As for `COc1cc(OC)cc(C(=O)Nc2cccc(-c3ccc(N4CCOCC4)nn3)c2)c1`, the EC50 (in experiment [2]; on Streptokinase A; in the experiment with Streptococcus) was > 150 µM (not active) throughout.
As for `Cc1ccc(C)c(C(=O)COc2ccccc2[N+](=O)[O-])c1`, the results for the EC50 in experiment [5] and in [6] were 10.2 µM (active) and 9.49 µM (active), respectively.
On to `COc1ccc(-n2c(O)cc(=O)nc2SCC(=O)Nc2ccccc2)cc1`, for which the EC50 is 67.3 µM (active) in experiment [2], > 150 µM (not active) on Streptokinase A and > 150 µM (not active) in the experiment with Streptococcus.
Turning to `CCOC(=O)c1c(NC(=O)CCS(=O)(=O)c2ccccc2)sc2c1CCN(C)C2`, the EC50 (in [2]; at Streptokinase A; in the experiment with Streptococcus) was > 150 µM (not active) each time.
Take `Cc1ccc(CN2CCN(CC3CC4C=CC3C4)CC2)cc1` (stereo not given): the IC50 in experiment [7] is 113 µM (active).
Regarding `N#C/C(=C\c1ccc(OCc2ccccc2)cc1)C(=O)Nc1nc2c(s1)CCN(Cc1ccccc1)C2`, the CC50 in experiment [1] is 28.8 µM (active).
Turning to `C=CCc1cccc(/C=N/c2cc(Br)ccc2O)c1O`, the IC50 in experiment [7] was 14.7 µM (active).
Same read-out and setting: in the case of `CCOc1ccccc1NC(=O)C(NCCN(C)C)c1ccccc1` (stereo not given) it was 91.1 µM (active).
Regarding `CCc1sc(C(=O)Nc2nccs2)cc1C`, the EC50 (in [2]; at Streptokinase A; with Streptococcus) was > 150 µM (not active) in each case.
On to `c1ccc(CNc2ccc(N3CCOCC3)cc2)cc1`, for which the IC50 in experiment [7] is 8.18 µM (active).
Take `C[C@]12CCC(O)CC1CCC1C2CC[C@]2(C)C(c3cc(C(F)(F)F)[nH]n3)CCC12` (stereo not given in full): the CC50 in experiment [1] is 8.08 µM (active). For the same compound, the EC50 in [2] was 1.17 µM (active); with Streptococcus, 3.87 µM (active). Also, the AC50 in experiment [8] was 1.67 µM (active).
On to `CC(=O)/C=C/c1ccc2ccccc2n1`, for which the results for the EC50 in [5] and in experiment [6] were 2.58 µM (active) and 2.42 µM (active), respectively. Moreover, the AC50 at Cytochrome P450 2C19 was 39.8 µM (inconclusive).
As to `CC1CN(c2nc(-c3ccc(Br)cc3)nnc2-c2ccccc2)CC(C)N1` (stereo not given), the EC50 in experiment [5] was 11.3 µM (active); in experiment [6], 10 µM (active).
For the compound `Cc1cc2cc(CN(CC3CCCO3)C(S)=Nc3ccccc3)c(O)nc2cc1C` (stereo not given), the EC50 in [5] was 4.38 µM (active); in experiment [6], 5.3 µM (active). Besides, the AC50 in [9] was 2.91 µM (active); in [10], 48.9 µM (active); in [11], 9.59 µM (active).
Consider `C=C(C)COc1ccc(-c2nc(N)ncc2Oc2ccc(OC)cc2)c(O)c1`, for which the EC50 is 47.6 µM (active) in experiment [2], > 150 µM (not active) at Streptokinase A and > 150 µM (not active) in the experiment with Streptococcus.
With `CC(C)CCOc1ccc(-c2c(=O)n(OCc3ccc([N+](=O)[O-])cc3)c3ccccc3[n+]2[O-])cc1`, the results for the EC50 in experiment [5] and in experiment [6] were 20.7 µM (active) and 28.3 µM (active), respectively.
Take `COc1cccc(CC(=O)OCC(=O)Nc2nnc(-c3ccccc3)o2)c1`: the EC50 in [2] was 7.82 µM (active); on Streptokinase A, > 150 µM (not active); with Streptococcus, > 150 µM (not active).
`COc1cc(OC)c(NC(=O)C2CCN(S(=O)(=O)c3ccc4c(c3)CC(C)N4C(C)=O)CC2)cc1Cl` (stereo not given): the CC50 in experiment [1] was > 50 µM (active).
With `C[C@]12CCC(O)CC1CCC1C2CC[C@]2(C)C(c3cc(C(F)(F)F)n[nH]3)CCC12` (stereo not given in full), the EC50 on Streptokinase A was 4.19 µM (active); in experiment [12] it was 11.1 µM (active).
With `CC(C)c1ccc(NC(=O)/C(C#N)=C/c2ccncc2)cc1`, in experiment [1], the CC50 was 14.5 µM (active).
Consider `COc1cc(C(=O)N/N=C/c2ccc(OC(=O)c3ccccc3Cl)c(OC)c2)ccc1O`, for which the EC50 in experiment [2] was 6.17 µM (active); at Streptokinase A, > 150 µM (not active); with Streptococcus, 8.59 µM (active).
